Measured values: US20200079750A1, “COMPOUND OR SALT THEREOF, ANTIVIRAL AGENT, AND PHARMACEUTICAL COMPOSITION” (priority 2017, published 2020)

What was measured:
[1] = system: Towne strain of human cytomegalovirus (HCMV); assay: Evaluation of antiviral activity: viral load of HCMV-infected HEL cells by the plaque method; type: cell-based; conditions: for EC50: Human betaherpesvirus 5, HEL, 144 h, read-out: EC50 value (anti-HCMV effect)
Description: Diploid fibroblasts derived from human embryonic lung (Human embryonic lung fibroblasts; HEL cells) cultured in a 9.6 cm^2 petri dish until they became confluent using Dulbecco's Modified Eagle Medium (DMEM) to which 8% fetal calf serum (FCS) was added were prepared. The HEL cells were adsorbed and infected with a Towne strain of human cytomegalovirus (HCMV) with a multiplicity of infection (MOI) of 1, and cultured at 37° C. for 1 hour to obtain HCMV-infected cells.
The compound of the present invention or tricin which were serially diluted with dimethyl sulfoxide (compound concentration: 0.001, 0.01, 0.1, 1 and 10 μM) was added to the above HCMV-infected cells and cultured for 6 days. The number of infectious HCMV particles produced in the culture supernatant (viral load) was determined by the plaque method.
The plaque method was performed in the following manner. After the HEL cells cultured in a 24-well plate until they became confluent were adsorbed and infected with the culture supernatant which was 10-fold serially diluted at 37° C. for 1 hour, the 2% FCS and 0.4% agar-containing DMEM media were overlaid and then cultured. Several days (6 to 12 days) after the initiation of culture, the number of plaques appeared was counted under a microscope, and the viral load was measured.
A lower value of the relative value (the viral load against control) means a higher antiviral activity.
Using the compound obtained as mentioned above (the compound of the present invention), tricin and ganciclovir, the antiviral activity of each compound was evaluated in the same manner as in the above <Evaluation of Antiviral Activity—1>.

[2] = system: HEL cells; assay: Evaluation of cytotoxicity to HEL cells by LDH release assay; type: cell-based, human; conditions: 37° C. for 5 days, concentrations of at least up to 10 μM, FIG. 3
Description: Using the compound obtained as mentioned above (the compound of the present invention), tricin and flavopiridol, the cytotoxicity to the HEL cells was evaluated in accordance with the following procedure. Flavopiridol is a control compound in this Test Example, which is known to have toxicity although it functions as an antiviral agent.
The HEL cells were cultured at 37° C. for 5 days in the presence or absence of the above each compound. The proportion of viable cells after culture was calculated by the LDH release assay. The kit (trade name “Cyto Tox 96 (registered trademark) assay”, manufactured by Promega Corporation) was used for the assay. The test was repeated three times, and data were represented as mean±SD.

SMILES	EC50 [1] [nM]	antiviral activity (viral load against control) ([1]; FIG. 1, compared with tricin, clearly observed at 0.001 to 1.000 μM)	antiviral activity (viral load against control) ([1]; FIG. 2, compared with tricin and ganciclovir, clearly observed at 0.1 to 1,000 nM)	anti-HCMV effect higher than that of ganciclovir ([1]; from EC50 values, versus ganciclovir)	anti-HCMV effect higher than that of tricin ([1]; from EC50 values, versus tricin)	cytotoxicity (proportion of viable cells) [2]
Nc1nc(O)c2ncn(COC(CO)CO)c2n1 [ganciclovir, reference compound]	27.5					
COc1cc(-c2cc(=O)c3ccc(F)cc3o2)cc(OC)c1O [the compound of the present invention, 7-fluoro-4′-hydroxy-3′,5′-dimethoxyflavone]	0.13	remarkably higher antiviral activity than tricin	remarkably higher antiviral activity than tricin and ganciclovir	about 200 fold	about 400 fold	no cytotoxicity
COc1cc(-c2cc(=O)c3c(O)cc(O)cc3o2)cc(OC)c1O [tricin, 4′,5,7-trihydroxy-3′,5′-dimethoxyflavone, reference compound]	54.3					
